The target in experiment [1] is Epithelial discoidin domain-containing receptor 1 (Homo sapiens, UniProt Q08345). Nature of the experiment: Binding Assays. Here is the method: (§1) DDR1 and DDR2 binding assays were performed using Life Technologies LanthaScreen™ Europium Kinase Binding assay. The compounds were incubated with 5 nM DDR1 (Carna Biosciences) or 5 nM DDR2 (Life Technologies) for 1 h at rt in white 384-well OptiPlate (PerkinElmer), containing 20 nM or 10 nM Kinase Tracer 178 respectively and 2 nM Europium labelled anti-GST antibody (Life Technologies) in assay buffer (50 mM HEPES pH 7.5, 10 mM MgCI2, 1 mM EGTA and 0.01% BRIJ35). The ratio of fluorescence emission 665 nm/615 nm after excitation at 340 nm was obtained using the Tecan Spark 20M plate reader. IC50 values were determined in GraphPad Prism 7.0 software, using 4 parameter model: log(inhibitor) vs. response. IC50 values were converted in Ki using the Cheng-Prusoff equation (Ki=IC50/(1+[Tracer]/Kd).

Experiment [2] deals with T1, Discoidin domain-containing receptor 2 (Homo sapiens, UniProt Q16832).
T1 sequence (Q16832 whole entry): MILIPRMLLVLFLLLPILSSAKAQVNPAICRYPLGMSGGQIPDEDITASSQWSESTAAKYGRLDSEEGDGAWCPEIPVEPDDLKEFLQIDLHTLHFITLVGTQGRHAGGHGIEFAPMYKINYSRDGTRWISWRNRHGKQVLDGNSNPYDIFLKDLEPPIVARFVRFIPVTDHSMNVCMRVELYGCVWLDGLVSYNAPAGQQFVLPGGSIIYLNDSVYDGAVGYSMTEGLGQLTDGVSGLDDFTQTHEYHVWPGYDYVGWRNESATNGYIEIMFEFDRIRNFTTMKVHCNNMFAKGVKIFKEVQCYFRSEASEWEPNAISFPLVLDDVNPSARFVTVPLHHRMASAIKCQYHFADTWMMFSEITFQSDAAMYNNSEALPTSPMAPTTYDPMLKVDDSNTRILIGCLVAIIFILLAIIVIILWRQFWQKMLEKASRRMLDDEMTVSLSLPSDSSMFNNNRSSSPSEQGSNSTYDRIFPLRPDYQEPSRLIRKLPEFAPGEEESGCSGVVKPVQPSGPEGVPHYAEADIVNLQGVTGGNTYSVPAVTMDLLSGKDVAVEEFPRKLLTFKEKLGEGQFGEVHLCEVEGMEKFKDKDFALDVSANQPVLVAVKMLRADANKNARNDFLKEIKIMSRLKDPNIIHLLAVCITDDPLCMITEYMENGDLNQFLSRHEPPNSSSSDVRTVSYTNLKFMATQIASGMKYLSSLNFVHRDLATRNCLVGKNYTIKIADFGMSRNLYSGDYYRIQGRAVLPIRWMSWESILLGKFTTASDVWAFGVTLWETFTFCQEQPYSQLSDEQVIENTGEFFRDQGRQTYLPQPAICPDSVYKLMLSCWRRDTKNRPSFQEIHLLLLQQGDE
Nature of the experiment: Binding Assays. Here is the method:
as §1

From BindingDB's records for patent US20260028328 (Chiesi Farmaceutici, 2026) come the findings set out here.

Molecules are shown by their SMILES.

Epithelial discoidin domain-containing receptor 1, sequence (Q08345 whole entry, the tested form may be a part): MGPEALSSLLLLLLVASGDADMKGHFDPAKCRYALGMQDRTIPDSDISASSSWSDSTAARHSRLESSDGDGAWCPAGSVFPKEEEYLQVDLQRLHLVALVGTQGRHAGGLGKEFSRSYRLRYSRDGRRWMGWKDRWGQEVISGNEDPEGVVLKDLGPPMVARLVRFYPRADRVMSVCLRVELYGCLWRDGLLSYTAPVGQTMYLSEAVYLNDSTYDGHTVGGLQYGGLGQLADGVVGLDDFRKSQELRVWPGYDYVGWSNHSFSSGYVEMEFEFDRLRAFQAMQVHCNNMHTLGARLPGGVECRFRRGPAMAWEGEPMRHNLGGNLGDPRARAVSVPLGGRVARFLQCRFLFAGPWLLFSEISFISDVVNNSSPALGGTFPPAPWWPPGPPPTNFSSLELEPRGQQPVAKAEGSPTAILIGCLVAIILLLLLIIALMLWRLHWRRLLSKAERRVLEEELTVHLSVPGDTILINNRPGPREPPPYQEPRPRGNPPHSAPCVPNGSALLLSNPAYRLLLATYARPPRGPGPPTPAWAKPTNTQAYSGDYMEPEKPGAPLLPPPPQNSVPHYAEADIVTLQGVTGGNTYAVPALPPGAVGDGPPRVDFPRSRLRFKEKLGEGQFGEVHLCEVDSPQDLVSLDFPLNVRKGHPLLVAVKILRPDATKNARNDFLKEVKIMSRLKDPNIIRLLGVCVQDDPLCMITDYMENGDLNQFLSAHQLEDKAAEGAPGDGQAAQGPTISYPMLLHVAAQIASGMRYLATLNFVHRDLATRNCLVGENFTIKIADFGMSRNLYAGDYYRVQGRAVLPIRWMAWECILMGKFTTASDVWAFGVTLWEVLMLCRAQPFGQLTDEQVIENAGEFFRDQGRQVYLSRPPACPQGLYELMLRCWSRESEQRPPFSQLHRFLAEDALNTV

For `Cc1ccc(C(=O)Nc2cncc(C(F)(F)F)c2)cc1SC1CN(c2cncnc2)C1` [US20260028328, Example 177], the figures for the Ki in experiment [1] and in experiment [2] were 5 to 25 nM and 25 to 100 nM, respectively. For `Cc1ccc(C(=O)Nc2cncc(C(F)(F)F)c2)cc1OC1CN(c2cncc(C(N)=O)c2)C1` [US20260028328, Example 139], the Ki – broadly, a dissociation constant, usually derived from enzyme kinetics or from competition with a known ligand – in experiment [1] is less than 5 nM.
